According to article PMC9143880, “Improving Antimicrobial Activity and Physico-Chemical Properties by Isosteric Replacement of 2-Aminothiazole with 2-Aminooxazole” (Pharmaceuticals, 2022):
Converted amounts (≈) assume the structure as drawn. Read-outs that look alike come from different tables or passages of the source.

Tests used:
[1] = RP-UHPLC lipophilicity parameter log k’w; assay type: physicochemical; settings: for log k’w: RP-UHPLC, acetonitrile/water, log k extrapolated to 0% acetonitrile; for logkw: experimental lipophilicity parameter
Excerpt: Lipophilicity and water solubility of the drug candidates are important parameters as they are often directly related to their ADME properties in the organism. Lipophilicity is usually expressed as the logarithm of the partition coefficient in n-octanol/water (log P). Due to its laborious determination, especially in the HTS screening, other experimental methods such as RP-HPLC log k’w or purely computational approaches such as Clog P were proposed and have been established as reasonable estimators of true lipophilicity. To investigate the changes in lipophilicity upon introduction of oxazole in the title compounds, we determined the log k’w of all derivatives and compared respective values among the pairs.
The log k of the synthesized compounds was measured using the same instrument (single measurement per concentration), software, and column as was used in the purity evaluation. Working solutions were diluted as described above for purity determination. The log k parameter was calculated after the UHPLC measurements using isocratic mode with mobile phase acetonitrile (B)/water (A) in a set of concentrations of 40, 45, 50% and 20, 30, 40% B for subtype I and subtype II, respectively.

HepG2 cells = assay: HepG2 cytotoxicity screening (CellTiter 96); assay type: cell-based, human; settings: Homo sapiens, HepG2, 24 h, 24 h incubation, CellTiter 96; * above highest tested concentration; ** limited by insolubility in medium
[2] = system: Mycobacterium tuberculosis H37Ra ITM-M006710 (ATCC 9431); assay: Antimycobacterial MIC, microdilution broth / Alamar Blue (resazurin); assay type: cell-based; settings: Mycobacterium tuberculosis, 120 h, Middlebrook 7H9, resazurin after 120 h; read-out: Mtb H37Ra MIC
[3] = system: M. smegmatis DSM 43465 (ATCC 607); assay: Antimycobacterial MIC, microdilution broth / resazurin; assay type: cell-based; settings: Mycolicibacterium smegmatis; resazurin after 48 h; read-out: MIC M. smegmatis
[4] = system: M. aurum DSM 43999 (ATCC 23366); assay: as above; assay type: cell-based; settings: Mycolicibacterium aurum, read-out: MIC M. aurum
[5] = system: Staphylococcus aureus subsp. aureus CCM 4223 (ATCC 29213); assay: Antibacterial microdilution broth (EUCAST); assay type: cell-based; settings: Staphylococcus aureus; 24h incubation; read-out: MIC SA
[6] = system: Staphylococcus aureus subsp. aureus (MRSA) CCM 4750 (ATCC 43300); assay: Antibacterial microdilution broth (EUCAST); assay type: cell-based; settings: Staphylococcus aureus; 24h incubation; read-out: MIC MRSA
[7] = system: Staphylococcus epidermidis CCM 4418 (ATCC 12228); assay: Antibacterial microdilution broth (EUCAST); assay type: cell-based; settings: Staphylococcus epidermidis; 24h incubation; read-out: MIC SE
[8] = system: Enterococcus faecalis CCM 4224 (ATCC 29212); assay: Antibacterial microdilution broth (EUCAST); assay type: cell-based; settings: Enterococcus faecalis; 24h incubation; read-out: MIC EF
[9] = system: Escherichia coli CCM 3954 (ATCC 25922); assay: Antibacterial microdilution broth (EUCAST); assay type: cell-based; settings: Escherichia coli; 24h incubation; read-out: MIC EC
[10] = system: Acinetobacter baumannii DSM 30007 (ATCC 19606); assay: Antibacterial microdilution broth (EUCAST); assay type: cell-based; settings: Acinetobacter baumannii; 24h incubation; read-out: MIC AB
[11] = system: Pseudomonas aeruginosa CCM 3955 (ATCC 27853); assay: Antibacterial microdilution broth (EUCAST); assay type: cell-based; settings: Pseudomonas aeruginosa; 72h incubation; read-out: MIC PA
[12] = system: Candida albicans CCM 8320 (ATCC 24433); assay: Antifungal microdilution broth (EUCAST); settings: Candida albicans; for MIC: 24 h
[13] = system: Candida krusei CCM 8271 (ATCC 6258); assay: Antifungal microdilution broth (EUCAST); settings: Pichia kudriavzevii; for MIC: 24 h
[14] = system: Candida parapsilosis CCM 8260 (ATCC 22019); assay: Antifungal microdilution broth (EUCAST); settings: Lodderomyces parapsilosis
[15] = system: Candida tropicalis CCM 8264 (ATCC 750); assay: Antifungal microdilution broth (EUCAST); settings: Candida tropicalis; for MIC: 24 h
[16] = system: Aspergillus fumigatus ATCC 204305; assay: Antifungal microdilution broth (EUCAST); settings: Aspergillus fumigatus
[17] = system: Aspergillus flavus CCM 8363; assay: Antifungal microdilution broth (EUCAST); settings: Aspergillus flavus
[18] = system: Lichtheimia corymbifera CCM 8077; assay: Antifungal microdilution broth (EUCAST); settings: Lichtheimia corymbifera
[19] = system: Trichophyton interdigitale CCM 8377 (ATCC 9533); assay: Antifungal microdilution broth (EUCAST); settings: Trichophyton interdigitale
[20] = system: M. avium DSM 44156 (ATCC 25291); assay: Antimycobacterial MIC, microdilution broth / resazurin; assay type: cell-based, Mycobacterium avium; settings: Mycobacterium avium; resazurin after 96 h; read-out: MIC M. avium
[21] = system: M. kansasii DSM 44162 (ATCC 12478); assay: as above; assay type: cell-based; settings: Mycobacterium kansasii; resazurin after 96 h; read-out: MIC M. kansasii
[22] = ATCC204305, 24 h, read-out: MIC AF
[23] = CCM8363, 24 h, read-out: MIC AFla
[24] = CCM8077, 24 h, read-out: MIC LC
[25] = read-out: MIC (visual detection)
[26] = ATCC22019|CCM8260, 24 h, read-out: MIC (visual detection)
[27] = ATCC204305, 48 h, read-out: MIC (visual detection)
[28] = CCM8363, 48 h, read-out: MIC (visual detection)
[29] = CCM8077, 48 h, read-out: MIC (visual detection)
[30] = ATCC9533|CCM8377, 48 h, read-out: MIC (visual detection)

Compound	log k’w [1]	logkw [1]	IC50 (HepG2 cells) [µM]	MIC [2] [µg/mL]	MIC [3] [µg/mL]	MIC [5] [µM]	MIC [6] [µM]	MIC [7] [µM]	MIC [8] [µM]	MIC [9] [µM]	MIC [10] [µM]	MIC [11] [µM]	MIC ([12]; read-out: MIC CA) [µM]	MIC ([13]; read-out: MIC CK) [µM]	MIC ([14]; 24 h, read-out: MIC CP) [µM]	MIC ([15]; read-out: MIC CT) [µM]	MIC [16, 22] [µM]	MIC [17, 23] [µM]	MIC [18, 24] [µM]	MIC ([19]; 72 h, read-out: MIC TI) [µM]	also measured
O=C(Nc1ncco1)c1ccccn1 [Compound 1b]	0.854	0.8542	> 1000	62.5 (≈ 330 µM)	125 (≈ 661 µM)	125 (≈ 23.6 µg/mL)	250 (≈ 47.3 µg/mL)	125 (≈ 23.6 µg/mL)	> 500	> 500	> 500	> 500	> 500	> 500	> 500	> 500	> 500	> 500	> 500	> 500	MIC ([4]; resazurin after 72 h): 31.2 µg/mL (≈ 165 µM); melting point: 129 to 131 °C
O=C(Nc1ncco1)c1ccncc1 [Compound 3b]	0.396	0.3955	> 1000	15.6 (≈ 82.6 µM)	62.5 (≈ 330 µM)	250 (≈ 47.3 µg/mL)	500 (≈ 94.6 µg/mL)	500 (≈ 94.6 µg/mL)	> 500	> 500	> 500	> 500	500	500	> 500	> 500	> 500	> 500	500	500	MIC ([4]; 72 h): 15.6 µg/mL (≈ 82.6 µM); melting point: 175 to 177 °C
O=C(Nc1nccs1)c1cnccn1 [Compound 8a]	1.222	1.222		62.5 (≈ 303 µM)	≥ 500	> 500	> 500	500 (≈ 103 µg/mL)	> 500	> 500	> 500	> 500	> 500	> 500	> 500	> 500	> 500	> 500	> 500	> 500	MIC ([4]; resazurin after 72 h): 125 µg/mL (≈ 606 µM); MIC [20]: 250 µg/mL (≈ 1210 µM); MIC [21]: 31.2 µg/mL (≈ 152 µM)
C[C@@H]1[C@H](O)[C@@H](C)/C=C/C=C/C=C/C=C/C=C/C=C/C=C/[C@H](O[C@@H]2O[C@H](C)[C@@H](O)[C@H](N)[C@@H]2O)C[C@@H]2O[C@](O)(C[C@@H](O)C[C@@H](O)[C@H](O)CC[C@@H](O)C[C@@H](O)CC(=O)O[C@H]1C)C[C@H](O)[C@H]2C(=O)O [amphotericin B, reference compound]																					MIC [12, 25]: 1 µg/mL; IC90 ([12]; ATCC24433|CCM8320, 24 h, read-out: IC90 (spectrophotometric detection)): 1 µg/mL (≈ 1.08 µM); MIC [13, 25]: 1 µg/mL; IC90 ([13]; ATCC6258|CCM8271, 24 h, read-out: IC90 (spectrophotometric detection)): 1 µg/mL (≈ 1.08 µM); IC90 ([14]; ATCC22019|CCM8260, 24 h, read-out: IC90 (spectrophotometric detection)): 0.5 µg/mL (≈ 0.541 µM); MIC [14, 26]: 0.5 µg/mL; MIC [15, 25]: 1 µg/mL; IC90 ([15]; ATCC750|CCM8264, 24 h, read-out: IC90 (spectrophotometric detection)): 1 µg/mL (≈ 1.08 µM); IC90 ([16]; ATCC204305, 48 h, read-out: IC90 (spectrophotometric detection)): 4 µg/mL (≈ 4.33 µM); MIC [16, 27]: 4 µg/mL; IC90 ([17]; CCM8363, 48 h, read-out: IC90 (spectrophotometric detection)): 4 µg/mL (≈ 4.33 µM); MIC [17, 28]: 4 µg/mL; IC90 ([18]; CCM8077, 48 h, read-out: IC90 (spectrophotometric detection)): 1 µg/mL (≈ 1.08 µM); MIC [18, 29]: 1 µg/mL; IC90 ([19]; ATCC9533|CCM8377, 48 h, read-out: IC90 (spectrophotometric detection)): 1 µg/mL (≈ 1.08 µM); MIC [19, 30]: 1 µg/mL
C[C@@H](c1ncncc1F)[C@](O)(Cn1cncn1)c1ccc(F)cc1F [voriconazole, reference compound]																					MIC [12, 25]: > 16 µg/mL; IC50 ([12]; ATCC24433|CCM8320, 24 h, read-out: IC50 (spectrophotometric detection)): 0.03 µg/mL (≈ 0.0859 µM); MIC [13, 25]: > 16 µg/mL; IC50 ([14]; ATCC22019|CCM8260, 24 h, read-out: IC50 (spectrophotometric detection)): 0.03 µg/mL (≈ 0.0859 µM); MIC [14, 26]: > 16 µg/mL; MIC [15, 25]: > 16 µg/mL; IC50 ([16]; ATCC204305, 48 h, read-out: IC50 (spectrophotometric detection)): 0.25 µg/mL (≈ 0.716 µM); MIC [16, 27]: 1 µg/mL; IC50 ([17]; CCM8363, 48 h, read-out: IC50 (spectrophotometric detection)): 1 µg/mL (≈ 2.86 µM); MIC [17, 28]: > 16 µg/mL; IC50 ([18]; CCM8077, 48 h, read-out: IC50 (spectrophotometric detection)): 8 µg/mL (≈ 22.9 µM); MIC [18, 29]: > 16 µg/mL; IC50 ([19]; ATCC9533|CCM8377, 48 h, read-out: IC50 (spectrophotometric detection)): 1 µg/mL (≈ 2.86 µM); MIC [19, 30]: > 16 µg/mL
